Source: patent US20190292189A1, “LIM KINASE INHIBITORS” (VIRONGY, LLC, priority 2016, published 2019)

Key:
Assay in all cases: Kinase profiling at 1 μM (Reaction Biology)
Assay type in all cases: biochemical
Conditions in all cases: ATP 10 μM
ERK2/MAPK1 = biological target: T1, ERK2/MAPK1 (Homo sapiens, UniProt P28482)
T1 construct: purchased Reaction Biology Corporation
Method: (§1) Profiling was carried out at Reaction Biology Corporation following a protocol described at its website: http://www.reactionbiology.com/webapps/site/. The % data were the average from two determinations. ATP concentration used: 10 μM; Staurosporine was used as the positive control.
(§2) Biochemical assays for all Limk inhibitors and kinase profiling were carried out in Reaction Biology Corporation and followed the protocols described on its website. […] Compounds were tested at 1 μM with duplicate experiments in profiling assays. […] Reactions were carried out at 10 μM ATP, 1 μM substrate cofilin, and 50 nM Limk1 (final concentrations).

EPHA3 = biological target: T2, EPHA3 (Homo sapiens, UniProt P29320)
T2 construct: purchased Reaction Biology Corporation
Method: as §1, §2

TAOK1 = biological target: T3, TAOK1 (Homo sapiens, UniProt Q7L7X3)
T3 construct: purchased Reaction Biology Corporation
Method: as §1, §2

EGFR = biological target: T4, EGFR (Homo sapiens, UniProt P00533)
T4 construct: purchased Reaction Biology Corporation
Method: as §1, §2

PDGFRb = biological target: T5, PDGFRb (Homo sapiens, UniProt P09619)
T5 construct: purchased Reaction Biology Corporation
Method: as §1, §2

BTK = biological target: T6, BTK (Homo sapiens, UniProt Q06187)
T6 construct: purchased Reaction Biology Corporation
Method: as §1, §2

IKKa/CHUK = biological target: T7, IKKa/CHUK (Homo sapiens, UniProt O15111)
T7 construct: purchased Reaction Biology Corporation
Method: as §1, §2

PAK2 = biological target: T8, PAK2 (Homo sapiens, UniProt Q13177)
T8 construct: purchased Reaction Biology Corporation
T8 sequence (Q13177 whole entry): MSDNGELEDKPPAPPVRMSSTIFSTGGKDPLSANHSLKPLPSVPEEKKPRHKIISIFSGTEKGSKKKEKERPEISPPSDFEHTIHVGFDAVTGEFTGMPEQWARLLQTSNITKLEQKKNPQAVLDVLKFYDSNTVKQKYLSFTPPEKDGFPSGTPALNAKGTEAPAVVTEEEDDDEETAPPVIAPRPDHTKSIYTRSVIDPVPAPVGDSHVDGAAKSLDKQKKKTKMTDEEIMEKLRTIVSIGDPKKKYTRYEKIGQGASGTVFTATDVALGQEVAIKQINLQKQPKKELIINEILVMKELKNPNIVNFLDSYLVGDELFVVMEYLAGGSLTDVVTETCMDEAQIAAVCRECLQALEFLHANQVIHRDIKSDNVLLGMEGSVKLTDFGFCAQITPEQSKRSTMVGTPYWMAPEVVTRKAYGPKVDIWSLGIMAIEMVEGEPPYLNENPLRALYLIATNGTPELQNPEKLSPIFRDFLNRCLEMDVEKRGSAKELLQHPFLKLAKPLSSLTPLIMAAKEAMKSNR
Method: as §1, §2

ROCK2 = biological target: T9, ROCK2 (Homo sapiens, UniProt O75116)
T9 construct: purchased Reaction Biology Corporation
Method: as §1, §2

ZIPK/DAPK3 = biological target: T10, ZIPK/DAPK3 (Homo sapiens, UniProt O43293)
T10 construct: purchased Reaction Biology Corporation
Method: as §1, §2

TESK1 = biological target: T11, TESK1 (Homo sapiens, UniProt Q15569)
T11 construct: purchased Reaction Biology Corporation
T11 sequence (Q15569 whole entry): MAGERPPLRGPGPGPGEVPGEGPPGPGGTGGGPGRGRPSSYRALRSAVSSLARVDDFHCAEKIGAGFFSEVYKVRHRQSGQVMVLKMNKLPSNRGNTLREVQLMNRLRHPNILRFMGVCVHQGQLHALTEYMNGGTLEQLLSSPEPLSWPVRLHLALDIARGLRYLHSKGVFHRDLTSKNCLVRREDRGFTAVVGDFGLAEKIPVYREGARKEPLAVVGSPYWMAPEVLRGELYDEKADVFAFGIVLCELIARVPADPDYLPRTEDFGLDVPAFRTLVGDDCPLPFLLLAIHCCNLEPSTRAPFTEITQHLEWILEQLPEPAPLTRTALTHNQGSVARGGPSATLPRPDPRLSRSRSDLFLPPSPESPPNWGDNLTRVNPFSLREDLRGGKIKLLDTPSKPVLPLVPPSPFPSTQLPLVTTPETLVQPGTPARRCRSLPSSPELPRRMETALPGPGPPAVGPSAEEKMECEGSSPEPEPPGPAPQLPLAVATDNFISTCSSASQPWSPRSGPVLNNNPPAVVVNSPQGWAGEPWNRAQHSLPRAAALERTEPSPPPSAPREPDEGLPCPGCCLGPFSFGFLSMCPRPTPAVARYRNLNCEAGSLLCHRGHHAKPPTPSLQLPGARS
Method: as §1, §2

c-Kit = biological target: T12, c-Kit (Homo sapiens, UniProt P10721)
T12 construct: purchased Reaction Biology Corporation
Method: as §1, §2

FLT3 = biological target: T13, FLT3 (Homo sapiens, UniProt P36888)
T13 construct: purchased Reaction Biology Corporation
T13 sequence (P36888 27-993): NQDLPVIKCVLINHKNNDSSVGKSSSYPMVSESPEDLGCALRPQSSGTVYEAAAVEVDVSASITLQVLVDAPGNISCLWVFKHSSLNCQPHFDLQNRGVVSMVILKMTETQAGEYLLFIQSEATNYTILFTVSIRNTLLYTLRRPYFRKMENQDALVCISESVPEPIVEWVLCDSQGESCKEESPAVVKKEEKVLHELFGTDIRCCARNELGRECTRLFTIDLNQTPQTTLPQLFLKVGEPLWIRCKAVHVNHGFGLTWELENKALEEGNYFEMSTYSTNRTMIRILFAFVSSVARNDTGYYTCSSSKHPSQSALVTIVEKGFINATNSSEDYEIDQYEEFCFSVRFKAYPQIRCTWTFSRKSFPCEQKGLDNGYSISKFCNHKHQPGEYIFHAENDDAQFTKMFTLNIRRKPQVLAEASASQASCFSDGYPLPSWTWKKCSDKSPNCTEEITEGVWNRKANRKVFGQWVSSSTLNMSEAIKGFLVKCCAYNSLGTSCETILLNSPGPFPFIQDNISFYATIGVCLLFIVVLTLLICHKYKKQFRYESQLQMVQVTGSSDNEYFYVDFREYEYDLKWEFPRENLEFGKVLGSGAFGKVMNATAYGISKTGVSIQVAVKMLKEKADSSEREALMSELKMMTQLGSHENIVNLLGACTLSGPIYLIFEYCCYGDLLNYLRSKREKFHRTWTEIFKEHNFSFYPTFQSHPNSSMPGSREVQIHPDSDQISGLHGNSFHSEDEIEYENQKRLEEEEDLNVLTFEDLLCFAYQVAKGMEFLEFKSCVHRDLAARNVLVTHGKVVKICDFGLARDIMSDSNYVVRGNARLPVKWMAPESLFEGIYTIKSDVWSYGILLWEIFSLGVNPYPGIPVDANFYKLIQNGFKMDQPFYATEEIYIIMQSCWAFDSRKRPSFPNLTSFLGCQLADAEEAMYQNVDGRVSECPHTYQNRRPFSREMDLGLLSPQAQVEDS
Method: as §1, §2

RET = biological target: T14, RET (Homo sapiens, UniProt P07949)
T14 construct: purchased Reaction Biology Corporation
Method: as §1, §2

p70S6K/RPS6KB1 = biological target: T15, p70S6K/RPS6KB1 (Homo sapiens, UniProt P23443)
T15 construct: purchased Reaction Biology Corporation
T15 sequence (P23443 whole entry): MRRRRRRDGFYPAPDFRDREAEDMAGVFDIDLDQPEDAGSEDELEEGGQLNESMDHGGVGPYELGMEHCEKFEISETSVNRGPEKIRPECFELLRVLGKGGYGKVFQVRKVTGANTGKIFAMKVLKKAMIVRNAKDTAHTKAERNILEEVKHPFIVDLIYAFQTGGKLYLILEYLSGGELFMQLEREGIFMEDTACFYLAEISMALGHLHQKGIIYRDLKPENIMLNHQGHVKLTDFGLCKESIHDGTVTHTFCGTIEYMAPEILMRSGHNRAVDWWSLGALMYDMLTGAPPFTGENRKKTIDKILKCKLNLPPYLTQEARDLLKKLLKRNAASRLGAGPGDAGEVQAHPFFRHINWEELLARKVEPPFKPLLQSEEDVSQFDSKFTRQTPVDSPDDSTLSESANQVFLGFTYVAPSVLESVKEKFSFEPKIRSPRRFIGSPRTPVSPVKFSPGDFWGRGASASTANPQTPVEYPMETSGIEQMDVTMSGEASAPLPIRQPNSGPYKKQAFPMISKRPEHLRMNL
Method: as §1, §2

CK1d = biological target: T16, CK1d (Homo sapiens, UniProt P48730)
T16 construct: purchased Reaction Biology Corporation
T16 sequence (P48730 whole entry): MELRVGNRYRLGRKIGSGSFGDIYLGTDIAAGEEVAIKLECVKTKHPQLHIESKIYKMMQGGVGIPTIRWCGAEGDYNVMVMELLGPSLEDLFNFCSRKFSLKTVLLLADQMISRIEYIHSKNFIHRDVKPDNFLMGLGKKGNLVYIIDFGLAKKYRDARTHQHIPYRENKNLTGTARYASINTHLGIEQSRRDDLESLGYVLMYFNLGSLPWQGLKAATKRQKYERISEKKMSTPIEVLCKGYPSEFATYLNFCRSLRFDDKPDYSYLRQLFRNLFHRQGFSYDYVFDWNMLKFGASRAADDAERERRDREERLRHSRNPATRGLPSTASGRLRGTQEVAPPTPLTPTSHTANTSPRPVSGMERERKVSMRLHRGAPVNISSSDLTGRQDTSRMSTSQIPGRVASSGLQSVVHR
Method: as §1, §2

JNK3 = JNK3 (Homo sapiens, UniProt P53779)
Method: as §1, §2

WEE1 = biological target: T17, WEE1 (Homo sapiens, UniProt P30291)
T17 construct: purchased Reaction Biology Corporation
Method: as §1, §2

TLK1 = biological target: T18, TLK1 (Homo sapiens, UniProt Q9UKI8)
T18 construct: purchased Reaction Biology Corporation
T18 sequence (Q9UKI8 whole entry): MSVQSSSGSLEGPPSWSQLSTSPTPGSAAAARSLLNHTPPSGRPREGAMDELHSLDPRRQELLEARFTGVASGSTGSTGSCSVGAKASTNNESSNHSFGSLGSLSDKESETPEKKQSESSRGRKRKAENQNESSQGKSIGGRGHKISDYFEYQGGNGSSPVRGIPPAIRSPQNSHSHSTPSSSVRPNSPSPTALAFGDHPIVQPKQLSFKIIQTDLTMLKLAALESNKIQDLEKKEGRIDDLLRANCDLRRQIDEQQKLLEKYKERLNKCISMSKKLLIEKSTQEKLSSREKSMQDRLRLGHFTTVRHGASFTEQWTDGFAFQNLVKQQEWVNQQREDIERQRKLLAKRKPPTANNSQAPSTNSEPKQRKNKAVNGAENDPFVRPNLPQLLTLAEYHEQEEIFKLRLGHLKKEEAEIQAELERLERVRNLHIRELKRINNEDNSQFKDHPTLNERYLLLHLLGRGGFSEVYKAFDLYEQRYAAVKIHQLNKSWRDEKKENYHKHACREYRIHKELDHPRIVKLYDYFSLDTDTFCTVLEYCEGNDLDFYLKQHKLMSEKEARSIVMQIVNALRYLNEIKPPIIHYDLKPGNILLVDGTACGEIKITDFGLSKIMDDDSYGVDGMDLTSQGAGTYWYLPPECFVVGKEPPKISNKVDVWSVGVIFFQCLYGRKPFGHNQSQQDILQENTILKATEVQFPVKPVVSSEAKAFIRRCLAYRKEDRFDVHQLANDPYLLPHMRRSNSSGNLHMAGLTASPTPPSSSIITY
Method: as §1, §2

MRCKa/CDC42BPA = biological target: T19, MRCKa/CDC42BPA (Homo sapiens, UniProt Q5VT25)
T19 construct: purchased Reaction Biology Corporation
Method: as §1, §2

P38a/MAPK14 = biological target: T20, P38a/MAPK14 (Homo sapiens, UniProt Q16539)
T20 construct: purchased Reaction Biology Corporation
Method: as §1, §2

ALK = biological target: T21, ALK (Homo sapiens, UniProt Q9UM73)
T21 construct: purchased Reaction Biology Corporation
Method: as §1, §2

FGFR1 = biological target: T22, FGFR1 (Homo sapiens, UniProt P11362)
T22 construct: purchased Reaction Biology Corporation
Method: as §1, §2

IKKe/IKBKE = biological target: T23, IKKe/IKBKE (Homo sapiens, UniProt Q14164)
T23 construct: purchased Reaction Biology Corporation
Method: as §1, §2

CAMK2b = biological target: T24, CAMK2b (Homo sapiens, UniProt Q13554)
T24 construct: purchased Reaction Biology Corporation
Method: as §1, §2

ROCK1 = biological target: T25, ROCK1 (Homo sapiens, UniProt Q13464)
T25 construct: purchased Reaction Biology Corporation
Method: as §1, §2

JAK3 = biological target: T26, JAK3 (Homo sapiens, UniProt P52333)
T26 construct: purchased Reaction Biology Corporation
Method: as §1, §2

MEK1 = biological target: T27, MEK1 (Homo sapiens, UniProt Q02750)
T27 construct: purchased Reaction Biology Corporation
T27 sequence (Q02750 whole entry): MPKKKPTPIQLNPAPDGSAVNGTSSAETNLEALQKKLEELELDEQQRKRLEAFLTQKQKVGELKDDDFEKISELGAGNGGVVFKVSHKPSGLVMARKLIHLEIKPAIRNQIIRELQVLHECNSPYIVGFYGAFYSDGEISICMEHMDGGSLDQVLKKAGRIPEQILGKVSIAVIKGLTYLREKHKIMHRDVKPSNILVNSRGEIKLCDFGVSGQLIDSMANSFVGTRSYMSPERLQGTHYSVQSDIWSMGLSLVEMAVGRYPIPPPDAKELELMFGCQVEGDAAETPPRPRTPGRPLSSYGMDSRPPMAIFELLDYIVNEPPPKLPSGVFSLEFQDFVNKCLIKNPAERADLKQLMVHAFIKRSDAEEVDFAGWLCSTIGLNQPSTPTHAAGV
Method: as §1, §2

IKKb/IKBKB = biological target: T28, IKKb/IKBKB (Homo sapiens, UniProt O14920)
T28 construct: purchased Reaction Biology Corporation
Method: as §1, §2

ABL1 = biological target: T29, ABL1 (Homo sapiens, UniProt P00519)
T29 construct: purchased Reaction Biology Corporation
Method: as §1, §2

KDR/VEGFR2 = biological target: T30, KDR/VEGFR2 (Homo sapiens, UniProt P35968)
T30 construct: purchased Reaction Biology Corporation
Method: as §1, §2

SGK1 = biological target: T31, SGK1 (Homo sapiens, UniProt O00141)
T31 construct: purchased Reaction Biology Corporation
Method: as §1, §2

JNK1 = biological target: T32, JNK1 (Homo sapiens, UniProt P45983)
T32 construct: purchased Reaction Biology Corporation
Method: as §1, §2

Aurora A = biological target: T33, Aurora A (Homo sapiens, UniProt O14965)
T33 construct: purchased Reaction Biology Corporation
Method: as §1, §2

G5K3b = biological target: T34, G5K3b (Homo sapiens, UniProt P49841)
T34 construct: purchased Reaction Biology Corporation
Method: as §1, §2

c-5rc = biological target: T35, c-5rc (Homo sapiens, UniProt P12931)
T35 construct: purchased Reaction Biology Corporation
T35 sequence (P12931 whole entry): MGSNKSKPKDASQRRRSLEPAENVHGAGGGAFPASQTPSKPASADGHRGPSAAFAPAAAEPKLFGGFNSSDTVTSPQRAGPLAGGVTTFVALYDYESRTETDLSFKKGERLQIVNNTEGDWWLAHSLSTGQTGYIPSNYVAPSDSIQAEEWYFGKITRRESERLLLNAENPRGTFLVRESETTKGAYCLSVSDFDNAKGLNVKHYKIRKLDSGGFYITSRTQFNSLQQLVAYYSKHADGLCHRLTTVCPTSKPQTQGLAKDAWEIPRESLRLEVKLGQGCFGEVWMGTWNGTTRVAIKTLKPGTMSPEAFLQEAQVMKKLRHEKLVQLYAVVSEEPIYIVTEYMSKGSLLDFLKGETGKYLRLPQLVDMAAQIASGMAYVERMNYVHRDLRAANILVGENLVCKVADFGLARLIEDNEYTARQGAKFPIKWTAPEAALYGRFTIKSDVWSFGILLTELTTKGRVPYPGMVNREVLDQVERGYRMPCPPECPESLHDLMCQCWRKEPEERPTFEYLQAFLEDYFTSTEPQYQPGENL
Method: as §1, §2

CDK2/cyclin A = biological target: T36, CDK2/cyclin A (Homo sapiens, UniProt P24941)
T36 construct: purchased Reaction Biology Corporation
Method: as §1, §2

PIM2 = biological target: T37, PIM2 (Homo sapiens, UniProt Q9P1W9)
T37 construct: purchased Reaction Biology Corporation
Method: as §1, §2

With COC(=O)c1ccc2[nH]c(C3CCN(c4ncnc5[nH]cc(Cl)c45)CC3)nc2c1 [Compound R10015, Methyl 2-(1-(5-chloro-7H-pyrrolo[2,3-d]pyrimidin-4-yl)piperidin-4-yl)-1Hbenzo[d]imidazole-5-carboxylate] the activity at 1 µM (ERK2/MAPK1) was 87.2%, the activity at 1 µM (EPHA3) was 91.1% and the activity at 1 µM (TAOK1) was 54%. The activity at 1 µM (EGFR) was 93.2%, the activity at 1 µM (PDGFRb) was 78.6% and the activity at 1 µM (BTK) was 90.2%. It also gave an activity at 1 µM (IKKa/CHUK) of 90.5%, an activity at 1 µM (PAK2) of 98.2% and an activity at 1 µM (ROCK2) of 29.5%. It also gave an activity at 1 µM (ZIPK/DAPK3) of 98.5%, an activity at 1 µM (TESK1) of 90.2% and an activity at 1 µM (c-Kit) of 81.3%. The activity at 1 µM (FLT3) was 32.2%, the activity at 1 µM (RET) was 46.5% and the activity at 1 µM (p70S6K/RPS6KB1) was 10%. The activity at 1 µM (CK1d) was 85%, the activity at 1 µM (JNK3) was 85.7% and the activity at 1 µM (WEE1) was 97.2%. For the same compound, the activity at 1 µM (TLK1) was 98.5%, the activity at 1 µM (MRCKa/CDC42BPA) was 96.5% and the activity at 1 µM (P38a/MAPK14) was 98.6%. The activity at 1 µM (ALK) was 95.5%, the activity at 1 µM (FGFR1) was 86.5% and the activity at 1 µM (IKKe/IKBKE) was 84.1%. It also gave an activity at 1 µM (CAMK2b) of 90.8%, an activity at 1 µM (ROCK1) of 42.3% and an activity at 1 µM (JAK3) of 61.1%. For the same compound, the activity at 1 µM (MEK1) was 75.6%, the activity at 1 µM (IKKb/IKBKB) was 85.1% and the activity at 1 µM (ABL1) was 89.2%. The activity at 1 µM (KDR/VEGFR2) was 87.2%, the activity at 1 µM (SGK1) was 61% and the activity at 1 µM (JNK1) was 95.2%. The activity at 1 µM (Aurora A) was 60.3%, the activity at 1 µM (G5K3b) was 67.8% and the activity at 1 µM (c-5rc) was 92.4%. For the same compound, the activity at 1 µM (CDK2/cyclin A) was 82.7% and the activity at 1 µM (PIM2) was 97.6%.
